PubChem BioAssay AID720688 (NMMLSC, 2013)
Activity calls are given as the source filed them.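 The calls were made as follows: active = half-effect concentration at most 10 µM, response change at least 30% across doses, and a curve fit passing quality checks; inactive = the rest.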

Biological target: Cell division control protein 42 homolog (Homo sapiens) (UniProt P60953)
Test: Cdc42 wildtype GTP-binding inhibitors, late-stage follow-up, mechanism study for Ras-family GTPase inhibitor project, biochemical, protein source comparison, flow cytometry beads, Bodipy-FL-GTP (AID 720688)
Details: GST-Cdc42 beads

Cell division control protein 42 homolog (Homo sapiens), sequence (P60953 whole entry, looked up): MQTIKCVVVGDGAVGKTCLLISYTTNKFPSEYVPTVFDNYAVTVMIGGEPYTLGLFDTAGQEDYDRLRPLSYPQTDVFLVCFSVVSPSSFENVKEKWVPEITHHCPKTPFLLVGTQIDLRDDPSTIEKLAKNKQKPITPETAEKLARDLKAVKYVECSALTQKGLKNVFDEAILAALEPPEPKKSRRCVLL

| % response remaining, lower = inhibition (protein source 2, at 100 µM (top of the series)) | EC50 (protein source 2) | SMILES |
| --- | --- | --- |
| inactive |  | CC1(C)Cc2c(sc(NC(=S)NC(=O)c3ccc(N=[N+]=[N-])cc3)c2C(=O)O)CO1 |
|  | 18.6 µM | CC1(C)Cc2c(sc(NC(=S)NC(=O)c3cccc(N=[N+]=[N-])c3)c2C(=O)O)CO1 |
